Test results reported in US7307091B2, “Deuterated 3-piperidinopropiophenone and medicaments containing said compounds” (BDD Berolina Drug Development GmbH, priority 2001, dated 2007).

What was measured:
CYP2C19 = biological target: T1, CYP2C19 (Homo sapiens, UniProt P33261); test: In-vitro biological degradation by cytochrome P450 enzymes: CYP2C19; format: in vitro ADME
T1 construct: expressed in transfected cells; host or cells: cell line named only by the CYP it carries

CYP2D6 = biological target: T2, CYP2D6 (Homo sapiens, UniProt P10635); test: In-vitro biological degradation by cytochrome P450 enzymes: CYP2D6; format: in vitro ADME
T2 construct: expressed in transfected cells; host or cells: cell line named only by the CYP it carries

CYP1A1 = biological target: T3, CYP1A1 (Homo sapiens, UniProt P04798); test: In-vitro biological degradation by cytochrome P450 enzymes: CYP1A1; format: in vitro ADME; conditions: 37° C., pH 7.4, 3 mM NADPH, protein 0.5 mg/mL; FIG. 1
T3 construct: expressed in transfected cells; host or cells: cell line named only by the CYP it carries
T3 sequence (P04798 1-512): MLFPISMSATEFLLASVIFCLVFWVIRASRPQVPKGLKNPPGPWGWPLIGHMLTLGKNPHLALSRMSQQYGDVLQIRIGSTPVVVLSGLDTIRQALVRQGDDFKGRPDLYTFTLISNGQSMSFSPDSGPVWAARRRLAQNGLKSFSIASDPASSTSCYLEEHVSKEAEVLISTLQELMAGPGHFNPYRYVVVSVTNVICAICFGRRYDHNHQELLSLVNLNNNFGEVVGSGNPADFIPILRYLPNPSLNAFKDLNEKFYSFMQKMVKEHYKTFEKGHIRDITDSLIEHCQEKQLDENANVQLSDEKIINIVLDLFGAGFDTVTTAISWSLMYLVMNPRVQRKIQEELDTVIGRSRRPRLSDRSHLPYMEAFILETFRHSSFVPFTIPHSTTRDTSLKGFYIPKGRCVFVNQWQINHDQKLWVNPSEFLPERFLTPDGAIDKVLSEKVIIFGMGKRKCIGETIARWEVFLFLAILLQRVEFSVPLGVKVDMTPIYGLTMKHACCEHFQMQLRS

CYP1A2 = biological target: T4, CYP1A2 (Homo sapiens, UniProt P05177); test: In-vitro biological degradation by cytochrome P450 enzymes: CYP1A2; format: in vitro ADME; conditions: 37° C., pH 7.4, 3 mM NADPH, protein 0.5 mg/mL; FIG. 1
T4 construct: expressed in transfected cells; host or cells: cell line named only by the CYP it carries
T4 sequence (P05177 1-516): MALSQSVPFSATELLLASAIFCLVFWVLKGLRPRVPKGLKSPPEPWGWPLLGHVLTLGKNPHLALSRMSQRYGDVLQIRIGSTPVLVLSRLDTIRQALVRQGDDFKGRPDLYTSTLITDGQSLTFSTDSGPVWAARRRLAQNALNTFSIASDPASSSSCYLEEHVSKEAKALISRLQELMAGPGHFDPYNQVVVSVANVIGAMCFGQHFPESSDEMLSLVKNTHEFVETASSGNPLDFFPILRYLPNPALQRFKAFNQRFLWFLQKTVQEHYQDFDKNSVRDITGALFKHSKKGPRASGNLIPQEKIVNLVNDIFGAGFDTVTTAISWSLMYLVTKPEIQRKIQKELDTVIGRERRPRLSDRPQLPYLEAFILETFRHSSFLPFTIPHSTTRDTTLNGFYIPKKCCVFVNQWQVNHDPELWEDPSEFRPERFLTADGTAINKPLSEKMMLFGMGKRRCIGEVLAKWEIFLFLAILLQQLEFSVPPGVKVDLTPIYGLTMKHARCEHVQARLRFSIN

CYP2C8 = biological target: T5, CYP2C8 (Homo sapiens, UniProt P10632); test: In-vitro biological degradation by cytochrome P450 enzymes: CYP2C8; format: in vitro ADME; conditions: 37° C., pH 7.4, 3 mM NADPH, protein 0.5 mg/mL; FIG. 1
T5 construct: expressed in transfected cells; host or cells: cell line named only by the CYP it carries
T5 sequence (P10632 1-490): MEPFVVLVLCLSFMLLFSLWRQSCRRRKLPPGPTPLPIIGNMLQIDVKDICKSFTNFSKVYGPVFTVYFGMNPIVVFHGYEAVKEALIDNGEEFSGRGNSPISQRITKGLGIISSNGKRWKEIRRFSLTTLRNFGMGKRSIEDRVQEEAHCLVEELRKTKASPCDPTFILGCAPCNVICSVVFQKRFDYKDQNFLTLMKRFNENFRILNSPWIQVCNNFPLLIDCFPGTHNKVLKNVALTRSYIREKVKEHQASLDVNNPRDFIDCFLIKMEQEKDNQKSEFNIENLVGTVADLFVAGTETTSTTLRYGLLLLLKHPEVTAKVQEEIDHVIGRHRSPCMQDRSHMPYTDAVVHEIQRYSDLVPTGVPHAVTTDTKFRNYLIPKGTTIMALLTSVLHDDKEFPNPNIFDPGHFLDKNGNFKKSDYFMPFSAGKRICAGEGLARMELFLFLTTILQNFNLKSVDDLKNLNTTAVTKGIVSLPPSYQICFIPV

CYP2E1 = biological target: T6, CYP2E1 (Homo sapiens, UniProt P05181); test: In-vitro biological degradation by cytochrome P450 enzymes: CYP2E1; format: in vitro ADME; conditions: 37° C., pH 7.4, 3 mM NADPH, protein 0.5 mg/mL; FIG. 1
T6 construct: expressed in transfected cells; host or cells: cell line named only by the CYP it carries

CYP3A4 = biological target: T7, CYP3A4 (Homo sapiens, UniProt P08684); test: In-vitro biological degradation by cytochrome P450 enzymes: CYP3A4; format: in vitro ADME; conditions: 37° C., pH 7.4, 3 mM NADPH, protein 0.5 mg/mL; FIG. 1
T7 construct: expressed in transfected cells; host or cells: cell line named only by the CYP it carries

[1] = strong first-pass effect; background statement; cited from earlier work
[2] = relative to tolperisone, FIG. 3
[3] = 37° C., pH 7.4, 3 mM NADPH, protein 0.5 mg/mL, LC/MS/MS, FIG. 1
[4] = primary metabolites formed by hydroxylation, FIG. 2

T1 sequence (P33261 whole entry): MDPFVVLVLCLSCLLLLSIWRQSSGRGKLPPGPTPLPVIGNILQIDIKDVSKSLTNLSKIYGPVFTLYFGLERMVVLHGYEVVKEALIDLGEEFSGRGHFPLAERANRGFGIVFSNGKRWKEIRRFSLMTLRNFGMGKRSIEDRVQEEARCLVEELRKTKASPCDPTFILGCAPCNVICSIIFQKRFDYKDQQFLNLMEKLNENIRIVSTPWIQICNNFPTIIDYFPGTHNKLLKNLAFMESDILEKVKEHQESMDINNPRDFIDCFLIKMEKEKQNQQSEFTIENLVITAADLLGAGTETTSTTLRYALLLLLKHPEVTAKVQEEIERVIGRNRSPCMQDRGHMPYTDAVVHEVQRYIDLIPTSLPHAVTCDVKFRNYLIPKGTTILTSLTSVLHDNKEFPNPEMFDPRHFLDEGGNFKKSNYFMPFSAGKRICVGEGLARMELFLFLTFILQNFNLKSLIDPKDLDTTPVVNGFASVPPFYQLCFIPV
T2 sequence (P10635 whole entry): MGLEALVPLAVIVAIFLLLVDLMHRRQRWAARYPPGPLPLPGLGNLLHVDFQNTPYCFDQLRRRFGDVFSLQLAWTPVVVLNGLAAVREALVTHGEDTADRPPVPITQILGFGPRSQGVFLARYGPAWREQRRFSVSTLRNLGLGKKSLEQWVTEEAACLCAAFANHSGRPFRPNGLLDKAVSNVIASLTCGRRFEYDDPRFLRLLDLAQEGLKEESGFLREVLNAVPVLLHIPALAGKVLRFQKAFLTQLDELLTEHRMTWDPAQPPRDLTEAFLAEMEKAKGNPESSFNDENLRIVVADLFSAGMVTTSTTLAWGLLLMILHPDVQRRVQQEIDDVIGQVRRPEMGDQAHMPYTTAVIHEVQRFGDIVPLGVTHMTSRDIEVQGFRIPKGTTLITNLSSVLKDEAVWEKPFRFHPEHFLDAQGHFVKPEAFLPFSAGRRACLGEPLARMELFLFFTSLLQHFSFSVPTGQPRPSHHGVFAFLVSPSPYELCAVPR
T7 sequence (P08684 whole entry): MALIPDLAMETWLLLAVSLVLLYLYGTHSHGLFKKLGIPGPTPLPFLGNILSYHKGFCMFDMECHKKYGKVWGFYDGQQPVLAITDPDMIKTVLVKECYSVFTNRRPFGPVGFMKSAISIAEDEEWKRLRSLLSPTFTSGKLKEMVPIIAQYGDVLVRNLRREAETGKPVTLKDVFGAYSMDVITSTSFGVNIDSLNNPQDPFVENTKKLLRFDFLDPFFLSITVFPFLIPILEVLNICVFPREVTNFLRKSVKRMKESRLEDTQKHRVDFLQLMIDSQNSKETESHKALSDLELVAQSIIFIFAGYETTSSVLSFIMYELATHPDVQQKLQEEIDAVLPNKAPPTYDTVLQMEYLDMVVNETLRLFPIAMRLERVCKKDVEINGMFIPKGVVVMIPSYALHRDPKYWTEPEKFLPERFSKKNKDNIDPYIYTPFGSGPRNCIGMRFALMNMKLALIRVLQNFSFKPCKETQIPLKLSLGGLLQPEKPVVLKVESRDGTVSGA
T6 sequence (P05181 whole entry): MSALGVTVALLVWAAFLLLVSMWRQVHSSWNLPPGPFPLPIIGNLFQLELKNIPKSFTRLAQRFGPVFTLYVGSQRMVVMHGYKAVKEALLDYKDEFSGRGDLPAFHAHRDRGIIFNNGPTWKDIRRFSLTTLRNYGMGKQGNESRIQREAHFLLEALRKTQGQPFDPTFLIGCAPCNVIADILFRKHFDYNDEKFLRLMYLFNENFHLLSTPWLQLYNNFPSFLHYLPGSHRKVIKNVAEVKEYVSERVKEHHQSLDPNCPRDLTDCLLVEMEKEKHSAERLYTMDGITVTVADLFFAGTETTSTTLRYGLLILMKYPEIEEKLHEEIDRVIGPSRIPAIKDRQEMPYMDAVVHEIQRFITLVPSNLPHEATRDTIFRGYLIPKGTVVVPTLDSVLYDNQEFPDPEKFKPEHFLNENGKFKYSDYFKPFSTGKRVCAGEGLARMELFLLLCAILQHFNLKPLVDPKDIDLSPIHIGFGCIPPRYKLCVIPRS

Row | Compound | factor by which enzymatic hydroxylation by CYP2C19 is retarded in comparison to tolperisone (CYP2C19; [2]) | factor by which enzymatic hydroxylation by CYP2D6 is retarded in comparison to tolperisone (CYP2D6; [2]) | enzymatic degradation (decrease in tolperisone concentration over time) by CYP2C19 (CYP2C19; [3]) | formation of hydroxy metabolites by CYP2C19 (CYP2C19; [4]) | enzymatic degradation (decrease in tolperisone concentration over time) by CYP2D6 (CYP2D6; [3]) | formation of hydroxy metabolites by CYP2D6 (CYP2D6; [4]) | contribution to biological degradation by CYP1A1 (CYP1A1) | contribution to biological degradation by CYP1A2 (CYP1A2) | contribution to biological degradation by CYP2C8 (CYP2C8) | contribution to biological degradation by CYP2E1 (CYP2E1) | contribution to biological degradation by CYP3A4 (CYP3A4) | fraction of the administered dose found unchanged in the blood [1]
1 | [2H]c1c([2H])c(C([2H])([2H])[2H])c([2H])c([2H])c1C(=O)C(C)CN1CCCCC1 (stereo not drawn) [I, 1-[4-(trideuteromethyl)tetradeuterophenyl]-2-methyl-3-piperidin-1-yl-1-propanone] | 10 | 10 |  |  |  |  |  |  |  |  |  | 
2 | Cc1ccc(C(=O)C(C)CN2CCCCC2)cc1 (stereo not drawn) [tolperisone] |  |  | transformed above all | to the same extent as the substrate is degraded | transformed above all | to the same extent as the substrate is degraded | contribute at most insignificantly | contribute at most insignificantly | contribute at most insignificantly | contribute at most insignificantly | contribute at most insignificantly | one-fifth
